Like-named read-outs stand apart in the source and are kept apart here.
Columns and labels:
[1] = physchem; format: physicochemical; details: kinetic in PBS, pH 7.4; read-out: Aqueous solubility pH 7.4
Procedure: (§1) The aqueous solubility and in vitro metabolic stability of selected analogs were assessed to determine if they had favorable parameters (Table 9 ).These analogs were selected based on their potency and the modifications that were incorporated, which led to compounds 55 and 56. […] The high lipophilicity of analogs 1, 11, and 16 was not favorable for metabolic stability.
(§2) This was performed as previously described.^[ [14] ^, [16] ^]

[2] = target: Albumax (Bos taurus, UniProt P02769); test: in vitro; format: in vitro ADME
[3] = system: PfABCI3-HAreg parasites; test: Parasite proliferation assay with PfABCI3-HAreg parasites (SYBR Safe, 72 h); format: cell-based, Plasmodium falciparum; details: mean ± SEM, n = 4; for IC50: 72 h
Procedure: Glucosamine (GlcN) (5 mM) was used to reduce the level of pfabci3‐ha. Chloroquine and MMV020746 were used as negative and positive controls, respectively.
Figure 4 Sensitivity of PfABCI3‐HAreg parasites to growth inhibition by chloroquine (a), MMV020746 (b), and W482 (1) (c). Data for parasites in which pfabci3‐ha mRNA was reduced (+ GlcN) are shown in red. GlcN (5 mM) was added to the parasites 48 h prior to the assay and maintained throughout the 72 h assay. The data for parasites expressing a normal level of PfABCI3‐HA (‐GlcN) are shown in black. The data in all panels are from four independent experiments performed on different days. […] Parasites that were treated with or without GlcN (5 mM) were tested concurrently in each assay. TEXT PRINTED IN THE PICTURE: chloroquine: IC50 ± SEM (nM) - GlcN: 12.6 ± 1.1; IC50 ± SEM (nM) + GlcN: 11.9 ± 1.5 | MMV020746: IC50 ± SEM (nM) - GlcN: 104 ± 13; IC50 ± SEM (nM) + GlcN: 32.9 ± 3.9 | W482 (1): IC50 ± SEM (nM) - GlcN: 312 ± 28; IC50 ± SEM (nM) + GlcN: 153 ± 12
Parasite proliferation assays were performed with PfABCI3‐HAreg parasites^[ [19] ^] according to a previously described method, with the fluorescent nucleic acid intercalating dye SYBR Safe used to measure parasite viability.^[ [32] ^, [33] ^] The assays were commenced with cultures consisting of predominantly ring‐stage parasites with a starting hematocrit of 1% and parasitemia of 1%. […] It was shown previously that there is a reduction in pfabci3‐ha mRNA in PfABCI3‐HAreg exposed to 5 mM GlcN and a decrease in parasite viability over time.^[ [19] ^] The level of knockdown of the protein is not known.

[4] = in vitro; format: in vitro ADME
Procedure: as §1, §2

[5] = physchem; format: physicochemical; details: shake-flask method; listed as 1
Procedure: as §2

[6] = system: Plasmodium falciparum strain 3D7A; test: Parasite reduction ratio assay; format: cell-based
Excerpt: (§3) Figure 5 a) Stage of arrest assay showing that W482 (1) blocks ring‐trophozoite transition in the asexual stage of P. falciparum. […] Replicates of Giemsa‐stained blood smears can be found in Figure S4 (Supporting Information). c) Parasite reduction ratio assay conducted at 10 × EC50 of W482 (1). Data represent means and SD of P. falciparum 3D7 parasite survival measuring 3 independent replicates by two‐color flow cytometry using CFDA‐SE and Hoescht 33,342 staining.
Samples of parasites were collected at 24‐ and 48‐hour timepoints, whereby the compound was washed out and fresh erythrocytes pre‐labeled with intracellular dye were added. Samples were then incubated for 18 days, and then the number of viable parasites was quantified by flow cytometry (Figure 5c).
This assay was conducted following a previously described protocol using the Plasmodium falciparum strain 3D7A, MRA‐151.^[ [19] ^, [28] ^] The human biological samples used in the study were sourced ethically, and their research use was conducted in accordance with the terms of informed consent under an IRB/EC‐approved protocol.

[7] = system: P. falciparum 3D7 parasites; test: Stage of asexual arrest assay; format: cell-based, Plasmodium falciparum
Procedure: The asexual stage of arrest and parasite reduction ratio (PRR) assays were undertaken on W482 (1) to assess the speed‐of‐asexual kill and the alignment of the pyrimidine‐2,4‐diamine class with the Target Candidate Profiles (TCPs).^[ [27] ^] […] Parasite samples were collected from the culture at 12, 24, 36, 48, and 60 h, and microscopy was performed on Giemsa‐stained thin blood‐smeared samples. These samples were also quantified with flow cytometry using SYBR Green.
as §3

[8] = system: P. falciparum 3D7 parasites; test: P. falciparum 3D7 asexual stage parasite LDH assay, 72 h; format: cell-based, Plasmodium falciparum
Procedure: (§4) To establish the SAR, the antiparasitic activity of the analogs was determined using an assay that measures the lactate dehydrogenase (LDH) activity of asexual P. falciparum 3D7 parasites after 72 h of compound treatment. Mammalian cytotoxicity was monitored using an assay that measures the growth of HepG2 cells using Cell Titer‐Glo after 48 h of compound treatment.
This was performed as previously described, whereby lactate dehydrogenase (LDH) was used as a metabolic marker for parasite growth after a 72‐h incubation period.^[ [14] ^, [30] ^]

[9] = system: W482-resistant P. falciparum 3D7 populations; test: 72 h Pf LDH assay against W482-selected populations; format: cell-based, Plasmodium falciparum; details: for EC50: 72 h Pf LDH assay
Procedure: To identify the mechanism by which the pyrimidine‐2,4‐diamine class kills the P. falciparum parasite, a forward genetic study was performed on the hit compound W482 (1). We selected W482 (1) as the representative compound from this class, as the forward genetics and phenotype assays were performed in parallel to the medicinal chemistry described in the prior section. […] Genomic DNA was then prepared from these two resistant populations and the parental 3D7 strain and whole genome sequenced.
Figure 3 The activity of W482 (1) against W482‐selected populations and their 3D7 parental. The data are mean and SD from 3 independent 72 h Pf LDH assays.
This was performed as previously described.^[ [14] ^] Briefly, 3D7 wildtype parasites initially exposed to 2 × EC50 (0.3 µM) of W482 (1) and incremental increases in EC50 were applied until 10 × EC50 was reached. The resistant populations were not cloned for whole‐genome sequencing.

[10] = in vitro; format: cell-based; details: human; HepG2 viability over 48 h, Cell Titer-Glo; means and SDs, 3 experiments; read-out: HepG2 CC50 (SD)
Procedure: as §4
This was performed as previously described.^[ [14] ^, [31] ^]

[11] = system: late stage (IV‐V) gametocytes; details: at 5 µM; cited from earlier work
[12] = system: P. falciparum 3D7 parasites; details: asexual P. falciparum 3D7; hits from GSK TCAMS screen / MMV Malaria Box; cited from earlier work
[13] = system: early stage (I–III) gametocytes; details: at 2.5 µM; cited from earlier work
[14] = system: P. berghei liver stage; details: at 50 µM; cited from earlier work
[15] = system: hemoglobin catabolism; parameters: method as in PMID 27572391; details: previous metabolomic profiling; cited from earlier work
[16] = Plasmodium falciparum, 3D7, 72 h, P. falciparum 3D7, LDH activity, 72 h exposure, means and SDs, 3 or more experiments, read-out: Pf parasite EC50 (SD)

Chain of Albumax (P02769 25-607): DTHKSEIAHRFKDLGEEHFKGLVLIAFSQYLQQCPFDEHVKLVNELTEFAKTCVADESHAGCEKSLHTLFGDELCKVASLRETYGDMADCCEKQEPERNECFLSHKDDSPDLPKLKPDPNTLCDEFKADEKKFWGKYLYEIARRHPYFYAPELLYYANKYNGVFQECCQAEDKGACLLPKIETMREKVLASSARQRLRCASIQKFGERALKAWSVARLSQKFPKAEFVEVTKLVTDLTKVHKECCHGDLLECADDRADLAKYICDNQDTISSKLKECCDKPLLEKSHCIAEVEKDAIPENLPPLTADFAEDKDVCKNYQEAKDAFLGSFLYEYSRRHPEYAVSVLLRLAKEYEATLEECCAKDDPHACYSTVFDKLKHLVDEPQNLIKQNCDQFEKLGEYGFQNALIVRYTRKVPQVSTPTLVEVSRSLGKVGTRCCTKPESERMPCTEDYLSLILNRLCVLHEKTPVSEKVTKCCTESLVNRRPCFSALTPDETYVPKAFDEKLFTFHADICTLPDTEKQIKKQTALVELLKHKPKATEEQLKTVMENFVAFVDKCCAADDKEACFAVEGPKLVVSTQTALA

Molecule: 3‐Cyclohexyl‐N‐(4‐((4‐(dimethylamino)‐6‐methylpyrimidin‐2‐yl)amino)phenyl)propenamide [W482 (1)]
- solubility [1]: 3.8 µM
- Albumax binding % bound [2]: 99.1%
- IC50 ([3]; PfABCI3-HAreg parasites expressing normal level of PfABCI3-HA (-GlcN)): 312 ± 28 nM
- IC50 ([3]; PfABCI3-HAreg parasites with reduced pfabci3-ha mRNA (+ 5 mM GlcN)): 153 ± 12 nM
- fold lower IC50 for +GlcN parasites than -GlcN parasites [3]: 2.0 ± 0.1 fold
- Human liver microsomes CLint [4]: 174 µL/min/mg
- Rat hepatocytes CLint [4]: >92 µL/min/10^6 cells
- Human liver microsomes CLint ([4]; listed as 1): > 117 µL/min/mg
- eLogD [5]: 4.6–5.0
- asexual speed-of-kill profile ([6]; 10 × EC50, 24 and 48 h treatment, P. falciparum 3D7): fast killing profile
- lag phase ([6]; parasite killing profile): 24 h
- asexual stage of arrest ([7]; 10 × EC50 (1.4 µM) for 60 h, Giemsa-stained smears): ring to trophozoite transition stage
- percentage of parasitemia over time ([7]; 10 × EC50 (1.4 µM), SYBR Green flow cytometry): declines after 36 h
- EC50 ([8]; parental 3D7 in resistance selection study, 72 h Pf LDH assay, 3 independent assays, read-out: EC50 against parental 3D7): 197 nM
- EC50 ([9]; population #1, read-out: EC50 against W482-selected population #1): 396 nM
- EC50 ([9]; population #2, read-out: EC50 against W482-selected population #2): 407 nM
- fold decreased activity of resistant populations compared to parental 3D7 ([9]; two recovered populations vs parental 3D7): 2 fold

Molecule: CCN(CC)c1cc(C)nc(Nc2ccc(NC(=O)CCC3CCCCC3)cc2)n1 [Compound 4]
- CC50 [10]: 18000 nM
- EC50 [8, 16]: 520 nM

Molecule: CN(C)c1cc(Nc2ccc(NC(=O)CCC3CCCCC3)cc2)nc2ccccc12 [Compound 22, 3‐Cyclohexyl‐N‐(4‐((4‐(dimethylamino)quinolin‐2‐yl)amino)phenyl)propanamide]
- CC50 [10]: 15900 nM
- EC50 [8, 16]: 2470 nM

Molecule: Cc1cc(N2CCCC2)nc(Nc2ccc(NC(=O)CCC3CCCCC3)cc2)n1 [Compound 7, 3‐Cyclohexyl‐N‐(4‐((4‐methyl‐6‐(pyrrolidin‐1‐yl)pyrimidin‐2‐yl)amino)phenyl)propanamide]
- CC50 [10]: 12600 nM
- EC50 [8, 16]: 540 nM

Molecule: Cc1cc(N2CCCC2)nc(Nc2ccc(NC(=O)CCc3ccccc3)cc2)n1 [MMV396669 (3)]
- inhibition of late stage (IV‐V) gametocytes [11]: 21%
- EC50 [12]: 1070 nM
- inhibition of early stage (I–III) gametocytes [13]: 79%
- inhibition of P. berghei liver stage development [14]: 3%
- metabolomic profile [15]: peptide signature consistent with hemoglobin catabolism inhibition

Molecule: Cc1cc(N(C)C)nc(Nc2ccc(NC(=O)Nc3ccccc3)cc2)n1 [MMV020243 (2)]
- inhibition of late stage (IV‐V) gametocytes [11]: 2%
- inhibition of early stage (I–III) gametocytes [13]: 67%
- inhibition of P. berghei liver stage development [14]: 2%

— paper PMC12811996, “Exploration and Characterization of the Antimalarial Activity of Pyrimidine‐2,4‐Diamines for which Resistance is Mediated by the ABCI3 Transporter” (Chemmedchem, 2025)
